The source of these data is BindingDB's records for doi:10.1021/bi0500628 (Merck Research Laboratories, 2005).

In experiment [1] the target is Insulin-like growth factor 1 receptor (Homo sapiens, UniProt P08069). Nature of the experiment: Homogeneous Time-Resolved Fluorescence (HTRF) Assay. The conditions noted are these: pH 7.4; 22 °C. From the text: (§1) The assay uses purified enzyme interacting with biotinylated peptide substrate.HTRF is based on the proximity of europium cryptate (donor fluorophore)-labeled antiphosphotyrosine and streptavidin labeled with APC (allophycocyanin), which have been brought together by a binding reaction. When the two entities come into close proximity and upon excitation, energy transfer occurs and APC re-emits at 665 nm. Relative fluorescence units were read on a Discovery plate reader (Packard). The IC50 values for inhibitors were determined by a four-parameter sigmoidal curve fit.
On the technique in general: In TR-FRET formats the signal depends on donor and acceptor labels being close together.

The next experiment has as its target Insulin receptor (Homo sapiens, UniProt P06213). The description is as above. The conditions noted are these: pH 7.4; 22 °C.
From the text: as §1

A value given as a limit tells only on which side of the number the result lay.

Insulin-like growth factor 1 receptor, sequence (P08069 31-736 limits assumed): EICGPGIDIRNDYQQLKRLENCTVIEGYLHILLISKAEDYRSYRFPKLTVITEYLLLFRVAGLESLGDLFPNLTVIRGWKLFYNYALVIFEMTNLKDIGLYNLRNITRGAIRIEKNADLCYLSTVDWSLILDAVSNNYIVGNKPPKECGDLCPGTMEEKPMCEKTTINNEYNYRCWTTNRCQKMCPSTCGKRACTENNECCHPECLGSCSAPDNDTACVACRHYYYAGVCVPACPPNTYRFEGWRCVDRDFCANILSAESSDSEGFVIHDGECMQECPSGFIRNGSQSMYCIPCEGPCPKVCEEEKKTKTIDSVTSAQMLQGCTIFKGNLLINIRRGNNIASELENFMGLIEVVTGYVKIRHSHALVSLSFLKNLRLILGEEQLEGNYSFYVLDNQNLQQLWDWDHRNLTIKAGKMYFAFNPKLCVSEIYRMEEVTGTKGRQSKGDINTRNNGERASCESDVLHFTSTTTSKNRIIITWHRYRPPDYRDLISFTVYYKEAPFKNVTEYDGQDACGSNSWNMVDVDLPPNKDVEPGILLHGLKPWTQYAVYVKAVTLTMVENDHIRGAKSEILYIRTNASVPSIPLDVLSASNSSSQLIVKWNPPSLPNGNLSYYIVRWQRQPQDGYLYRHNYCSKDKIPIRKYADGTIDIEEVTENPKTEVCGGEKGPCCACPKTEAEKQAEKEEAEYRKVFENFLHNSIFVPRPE
Insulin-like growth factor 1 receptor, sequence (P08069 741-1367 limits assumed): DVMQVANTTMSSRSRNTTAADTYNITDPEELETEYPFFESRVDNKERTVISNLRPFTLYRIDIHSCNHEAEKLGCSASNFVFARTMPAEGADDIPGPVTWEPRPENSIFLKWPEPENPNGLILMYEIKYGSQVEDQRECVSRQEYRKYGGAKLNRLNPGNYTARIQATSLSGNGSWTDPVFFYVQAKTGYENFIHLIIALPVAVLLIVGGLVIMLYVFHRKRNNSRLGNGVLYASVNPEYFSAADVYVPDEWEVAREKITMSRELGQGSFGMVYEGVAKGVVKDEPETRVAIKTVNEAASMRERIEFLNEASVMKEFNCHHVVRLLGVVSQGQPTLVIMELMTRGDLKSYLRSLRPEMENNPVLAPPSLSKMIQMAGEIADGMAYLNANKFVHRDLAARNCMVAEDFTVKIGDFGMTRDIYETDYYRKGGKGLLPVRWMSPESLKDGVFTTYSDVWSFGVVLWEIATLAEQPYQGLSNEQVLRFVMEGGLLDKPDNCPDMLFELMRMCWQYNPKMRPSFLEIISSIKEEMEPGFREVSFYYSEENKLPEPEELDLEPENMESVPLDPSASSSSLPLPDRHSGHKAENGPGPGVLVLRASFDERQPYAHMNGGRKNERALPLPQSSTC
Insulin receptor, sequence (P06213 28-758 limits assumed): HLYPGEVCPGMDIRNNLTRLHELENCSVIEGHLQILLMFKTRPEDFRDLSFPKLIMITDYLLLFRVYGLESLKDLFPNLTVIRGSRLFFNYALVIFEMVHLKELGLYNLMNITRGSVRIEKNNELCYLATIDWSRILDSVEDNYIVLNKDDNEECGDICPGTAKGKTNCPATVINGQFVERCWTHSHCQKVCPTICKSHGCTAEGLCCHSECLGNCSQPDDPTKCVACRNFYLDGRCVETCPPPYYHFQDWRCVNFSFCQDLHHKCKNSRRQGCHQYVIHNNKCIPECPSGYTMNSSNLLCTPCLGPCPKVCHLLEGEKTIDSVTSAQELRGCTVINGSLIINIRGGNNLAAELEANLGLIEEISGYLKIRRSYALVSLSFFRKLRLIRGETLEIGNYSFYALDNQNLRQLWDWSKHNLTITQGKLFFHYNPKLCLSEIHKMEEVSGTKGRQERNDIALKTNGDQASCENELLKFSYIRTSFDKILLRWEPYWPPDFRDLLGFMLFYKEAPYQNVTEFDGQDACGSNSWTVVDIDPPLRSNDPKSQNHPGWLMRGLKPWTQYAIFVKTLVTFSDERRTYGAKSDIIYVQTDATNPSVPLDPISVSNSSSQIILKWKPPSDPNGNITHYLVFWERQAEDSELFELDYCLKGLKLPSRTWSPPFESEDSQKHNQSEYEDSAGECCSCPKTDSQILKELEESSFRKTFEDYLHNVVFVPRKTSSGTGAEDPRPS
Insulin receptor, sequence (P06213 763-1382 limits assumed): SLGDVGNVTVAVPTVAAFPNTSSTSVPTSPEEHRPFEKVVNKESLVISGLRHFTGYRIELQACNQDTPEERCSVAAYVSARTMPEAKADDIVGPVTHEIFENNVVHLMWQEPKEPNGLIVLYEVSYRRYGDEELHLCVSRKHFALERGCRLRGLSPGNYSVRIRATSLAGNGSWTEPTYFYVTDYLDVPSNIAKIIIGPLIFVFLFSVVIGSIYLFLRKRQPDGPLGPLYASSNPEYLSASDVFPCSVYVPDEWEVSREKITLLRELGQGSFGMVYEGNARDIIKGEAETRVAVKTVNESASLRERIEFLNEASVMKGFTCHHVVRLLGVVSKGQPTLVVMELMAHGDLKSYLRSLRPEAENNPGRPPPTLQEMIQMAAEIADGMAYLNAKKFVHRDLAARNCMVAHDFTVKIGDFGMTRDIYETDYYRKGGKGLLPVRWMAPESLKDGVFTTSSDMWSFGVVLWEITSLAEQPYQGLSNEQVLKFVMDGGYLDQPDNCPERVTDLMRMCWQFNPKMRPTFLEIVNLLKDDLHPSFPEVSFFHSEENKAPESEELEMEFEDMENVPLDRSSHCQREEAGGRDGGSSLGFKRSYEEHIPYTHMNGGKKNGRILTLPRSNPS

Regarding `CCOC(=O)c1c(C=O)[nH]c(C(=O)OC(C)(C)C)c1CC` [2-tert-Butyl 4-Ethyl 3-Ethyl-5-formyl-1H-pyrrole-2,4-dicarboxylate], the figures for the IC50 (in experiment [1]; against Insulin receptor) were 0.49 µM and 2 µM, respectively.

Regarding `CCN(CC)C(=O)c1[nH]c(C=O)c(C(=O)N(CC)CC)c1C` [N,N,N,N-Tetraethyl-5-formyl-3-methyl-1H-pyrrole-2,4-dicarboxamide], the IC50 (in experiment [1]; against Insulin receptor) was more than 100 µM each time.

Turning to `CCOC(=O)c1c(C=O)[nH]c(C(=O)NC(C)(C)C)c1CC` [ethyl 5-(tert-butylcarbamoyl)-4-ethyl-2-formyl-1H-pyrrole-3-carboxylate], the IC50 (commonly the point on the concentration scale where inhibition reaches its midpoint) was found to be 2.6 µM in experiment [1] and 17 µM at Insulin receptor.

Turning to `COC(=O)[C@]1(O)C[C@@H]2O[C@@]1(C)n1c3ccccc3c3c4c(c5c6ccccc6n2c5c31)C(=O)NC4` [methyl (15R,16S,18S)-16-hydroxy-15-methyl-3-oxo-28-oxa-4,14,19-triazaoctacyclo[12.11.2.1^{15,18}.0^{2,6}.0^{7,27}.0^{8,13}.0^{19,26}.0^{20,25}]octacosa-1(26),2(6),7(27),8(13),9,11,20(25),21,23-nonaene-16-carboxylate], the IC50 in experiment [1] came to 0.47 µM; against Insulin receptor, 0.21 µM.

Consider `CCOC(=O)c1[nH]c(CO)c(C(=O)OCC)c1C` [2,4-diethyl 5-(hydroxymethyl)-3-methyl-1H-pyrrole-2,4-dicarboxylate], for which the concentration for half-maximal inhibition (IC50) (in experiment [1]; against Insulin receptor) was more than 100 µM each time.

Take `CCOC(=O)c1[nH]c(C=O)c(C(=O)OCC)c1CC` [2,4-diethyl 3-ethyl-5-formyl-1H-pyrrole-2,4-dicarboxylate]: the IC50 in experiment [1] was found to be 1.1 µM; against Insulin receptor, 5.4 µM.

Turning to `CCOC(=O)c1[nH]c(C=O)c(C(=O)OCC)c1C` [2,4-diethyl 5-formyl-3-methyl-1H-pyrrole-2,4-dicarboxylate], the 50% inhibitory concentration (IC50) is 2.7 µM in experiment [1] and 12 µM on Insulin receptor.

Regarding `CCOC(=O)c1c(CC)c(C(=O)OC(C)(C)C)n(C)c1C=O` [2-tert-Butyl 4-Ethyl 3-Ethyl-5-formyl-1-methyl-1H-pyrrole-2,4-dicarboxylate], the 50% inhibitory concentration (IC50) was found to be 4.3 µM in experiment [1] and 12 µM against Insulin receptor.
